In experiment [1] the target is T1, SMARCA2 (Homo sapiens, UniProt P51531).
T1 construct: SMARCA2-HiBiT knock-in Hela monoclonal cell (CS302366); host or cells: HeLa (CRISPR HiBiT knock-in monoclonal line, heterozygous)
Nature of the experiment: SMARCA2 HiBiT degradation assay in HeLa cells. The format is cell-based. Conditions: 18 hours; for DC50: read-out: SMARCA2 IC50; for Dmax: HeLa. The procedure, abridged: (§1)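 Degradation measured as HiBiT luminescence (Nano-Glo lytic reagent) after 18 h compound exposure at 37° C. Cells were HeLa clones carrying heterozygous HiBiT tags on SMARCA2 or SMARCA4, 2500 per well; compounds at 3-fold serial dilution from 10 μM.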
(With HiBiT, luminescence reflects the tagged protein that the partner subunit can reach.)

In experiment [2] the target is T2, SMARCA4 (Homo sapiens, UniProt P51532).
T2 construct: SMARCA4-HiBiT knock-in Hela monoclonal cell (CS3023226) were purchased from Promega; host or cells: HeLa (CRISPR HiBiT knock-in monoclonal line, heterozygous)
T2 sequence (P51532 whole entry): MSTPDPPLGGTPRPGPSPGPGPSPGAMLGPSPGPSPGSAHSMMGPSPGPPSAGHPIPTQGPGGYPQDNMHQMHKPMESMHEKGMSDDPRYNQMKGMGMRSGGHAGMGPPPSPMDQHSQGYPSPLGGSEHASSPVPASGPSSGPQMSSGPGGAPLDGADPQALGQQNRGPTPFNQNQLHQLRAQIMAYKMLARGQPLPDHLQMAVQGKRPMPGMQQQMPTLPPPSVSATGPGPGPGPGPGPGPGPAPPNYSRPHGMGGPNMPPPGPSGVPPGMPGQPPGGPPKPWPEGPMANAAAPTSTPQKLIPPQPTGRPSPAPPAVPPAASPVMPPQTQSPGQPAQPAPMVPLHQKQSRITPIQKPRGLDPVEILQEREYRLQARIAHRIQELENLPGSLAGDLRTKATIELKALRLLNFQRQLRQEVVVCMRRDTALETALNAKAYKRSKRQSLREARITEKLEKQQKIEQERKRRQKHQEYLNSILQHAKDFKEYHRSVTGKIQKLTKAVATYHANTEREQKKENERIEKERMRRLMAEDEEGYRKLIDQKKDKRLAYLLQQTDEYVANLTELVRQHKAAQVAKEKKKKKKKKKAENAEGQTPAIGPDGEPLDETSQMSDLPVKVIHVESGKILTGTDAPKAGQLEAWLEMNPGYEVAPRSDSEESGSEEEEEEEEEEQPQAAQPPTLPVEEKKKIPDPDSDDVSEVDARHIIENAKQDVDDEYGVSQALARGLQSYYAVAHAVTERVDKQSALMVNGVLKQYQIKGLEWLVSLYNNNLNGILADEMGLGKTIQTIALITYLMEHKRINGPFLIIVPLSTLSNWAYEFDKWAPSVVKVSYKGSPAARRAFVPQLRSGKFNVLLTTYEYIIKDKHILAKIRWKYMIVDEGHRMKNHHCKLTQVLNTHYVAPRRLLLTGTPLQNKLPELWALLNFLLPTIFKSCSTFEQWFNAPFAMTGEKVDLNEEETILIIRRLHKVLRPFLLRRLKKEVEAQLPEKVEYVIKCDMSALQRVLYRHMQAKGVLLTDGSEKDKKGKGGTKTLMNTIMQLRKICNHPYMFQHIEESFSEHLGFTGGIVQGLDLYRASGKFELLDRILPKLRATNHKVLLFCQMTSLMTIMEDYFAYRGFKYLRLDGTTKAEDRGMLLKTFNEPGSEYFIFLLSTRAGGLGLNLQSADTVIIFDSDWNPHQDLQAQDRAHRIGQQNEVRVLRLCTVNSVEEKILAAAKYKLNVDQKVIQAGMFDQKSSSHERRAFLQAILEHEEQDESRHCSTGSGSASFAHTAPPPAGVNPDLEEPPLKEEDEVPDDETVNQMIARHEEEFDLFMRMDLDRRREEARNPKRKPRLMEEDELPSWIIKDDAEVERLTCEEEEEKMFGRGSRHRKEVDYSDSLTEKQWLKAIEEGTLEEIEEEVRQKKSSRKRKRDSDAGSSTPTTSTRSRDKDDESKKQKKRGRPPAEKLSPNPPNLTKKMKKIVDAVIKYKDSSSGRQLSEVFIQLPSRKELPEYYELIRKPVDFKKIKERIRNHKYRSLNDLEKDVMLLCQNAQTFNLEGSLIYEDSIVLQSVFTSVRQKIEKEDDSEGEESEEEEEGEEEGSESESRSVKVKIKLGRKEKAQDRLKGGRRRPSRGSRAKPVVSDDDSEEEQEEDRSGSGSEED
Briefly: SMARCA4 HiBiT degradation assay in HeLa cells. The format is cell-based. The conditions noted are these: 18 hours; for Dmax: HeLa. The gist of the method: as §1

Each structure is given as a SMILES string.

T1 sequence (P51531 whole entry): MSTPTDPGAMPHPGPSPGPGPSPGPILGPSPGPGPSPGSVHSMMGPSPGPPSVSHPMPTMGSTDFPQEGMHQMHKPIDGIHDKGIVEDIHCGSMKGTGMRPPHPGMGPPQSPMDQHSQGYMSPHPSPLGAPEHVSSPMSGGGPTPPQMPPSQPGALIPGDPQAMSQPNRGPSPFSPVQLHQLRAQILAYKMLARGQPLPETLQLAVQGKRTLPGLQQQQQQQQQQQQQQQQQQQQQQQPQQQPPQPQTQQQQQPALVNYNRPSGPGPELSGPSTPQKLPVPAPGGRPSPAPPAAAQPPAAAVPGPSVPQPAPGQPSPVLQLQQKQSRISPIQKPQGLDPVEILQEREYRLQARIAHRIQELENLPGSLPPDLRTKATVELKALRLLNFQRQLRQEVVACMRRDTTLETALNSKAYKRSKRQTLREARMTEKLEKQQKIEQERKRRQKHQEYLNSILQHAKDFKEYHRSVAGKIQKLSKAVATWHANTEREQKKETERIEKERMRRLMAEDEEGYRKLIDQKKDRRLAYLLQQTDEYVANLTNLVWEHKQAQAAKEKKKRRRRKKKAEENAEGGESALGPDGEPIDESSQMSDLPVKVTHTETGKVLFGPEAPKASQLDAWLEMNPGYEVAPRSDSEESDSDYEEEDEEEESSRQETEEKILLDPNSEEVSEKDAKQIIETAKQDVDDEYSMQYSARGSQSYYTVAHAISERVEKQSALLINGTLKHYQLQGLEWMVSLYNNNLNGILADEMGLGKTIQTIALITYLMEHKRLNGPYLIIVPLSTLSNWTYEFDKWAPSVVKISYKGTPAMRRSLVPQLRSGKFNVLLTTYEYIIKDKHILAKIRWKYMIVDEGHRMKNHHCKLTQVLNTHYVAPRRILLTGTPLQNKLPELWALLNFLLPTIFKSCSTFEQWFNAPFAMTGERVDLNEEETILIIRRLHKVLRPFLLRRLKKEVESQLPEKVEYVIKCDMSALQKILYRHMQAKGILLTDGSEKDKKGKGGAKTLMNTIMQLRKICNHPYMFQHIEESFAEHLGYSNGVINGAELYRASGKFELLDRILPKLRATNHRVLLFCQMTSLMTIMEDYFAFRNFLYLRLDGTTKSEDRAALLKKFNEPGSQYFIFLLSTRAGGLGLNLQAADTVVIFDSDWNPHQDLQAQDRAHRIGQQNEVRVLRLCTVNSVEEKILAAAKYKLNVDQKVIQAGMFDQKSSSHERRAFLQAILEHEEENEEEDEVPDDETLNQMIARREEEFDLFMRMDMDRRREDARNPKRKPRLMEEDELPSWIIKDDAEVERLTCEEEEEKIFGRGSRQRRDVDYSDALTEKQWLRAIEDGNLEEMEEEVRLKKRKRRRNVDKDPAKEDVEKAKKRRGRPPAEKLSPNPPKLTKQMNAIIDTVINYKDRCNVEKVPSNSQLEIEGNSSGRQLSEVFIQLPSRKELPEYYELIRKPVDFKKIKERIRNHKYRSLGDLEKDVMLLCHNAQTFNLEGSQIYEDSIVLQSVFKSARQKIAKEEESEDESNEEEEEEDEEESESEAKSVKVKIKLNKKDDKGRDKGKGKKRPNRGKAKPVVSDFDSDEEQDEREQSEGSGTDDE

Turning to `CC1(C)CN(CC2CCN(c3ccc4c(c3)C(=O)N(C3CCC(=O)NC3=O)C4)CC2)CCN1C(=O)N1CCN2c3cc(-c4cccc(F)c4O)nnc3NCC2(C)C1` (single isomer, unassigned) [Example 9, 3-(6-(4-((4-(2-(3-fluoro-2-hydroxyphenyl)-6a-methyl-6,6a,7,8,9,10-hexahydro-5H-pyrazino[1′,2′:4,5]pyrazino[2,3-c]pyridazine-8-carbonyl)-3,3-dimethylpiperazin-1-yl)methyl)piperidin-1-yl)-1-oxoisoindolin-2-yl)piperidine-2,6-dione], in experiment [1], the DC50 was less than 100 nM and the Dmax (in general, the largest share of the target that was removed) is more than 75%. In experiment [2], the DC50 is less than 100 nM and the “SMARCA4 DMax %” value is “A (A=Dmax>75%)”.
In the case of `O=C1CCC(N2Cc3cc(N4CCO[C@@H](CN5CC[C@H](CN6CCN7c8cc(-c9cc(F)cc(F)c9O)nnc8NC[C@H]7C6)[C@@H](F)C5)C4)ccc3C2=O)C(=O)N1` (stereo partly drawn) [Example 51, 3-(5-((S)-2-(((3R,4R)-4-(((S)-2-(3,5-difluoro-2-hydroxyphenyl)-5,6,6a,7,9,10-hexahydro-8H-pyrazino[1′,2′:4,5]pyrazino[2,3-c]pyridazin-8-yl)methyl)-3-fluoropiperidin-1-yl)methyl)morpholino)-1-oxoisoindolin-2-yl)piperidine-2,6-dione], in experiment [1], the DC50 was less than 100 nM and the Dmax was less than 50%. Moreover, in experiment [2], the DC50 is more than 1000 nM and the Dmax is less than 50%.
`C[C@@H]1CN(CC2CCN(c3ccc4c(c3)C(=O)N(C3CCC(=O)NC3=O)C4)CC2)C[C@@H](C)N1C(=O)N1CCN2c3cc(-c4cccc(Cl)c4O)nnc3NCC2(C)C1` (single isomer, unassigned) [Example 14]: in experiment [1], the DC50 is less than 100 nM and the Dmax is more than 75%. In experiment [2], this compound displayed a DC50 of less than 100 nM and a Dmax of 50 to 75%.
For `C[C@@H]1CN(CC2CCN(c3ccc4c(c3)C(=O)N(C3CCC(=O)NC3=O)C4=O)CC2)C[C@H](C)N1C(=O)N1CCN2c3cc(-c4cc(F)cc(F)c4O)nnc3NCC2(C)C1` (stereo partly drawn) [Example 36, 5-(4-(((3S,5R)-4-(2-(3,5-difluoro-2-hydroxyphenyl)-6a-methyl-6,6a,7,8,9,10-hexahydro-5H-pyrazino[1′,2′:4,5]pyrazino[2,3-c]pyridazine-8-carbonyl)-3,5-dimethylpiperazin-1-yl)methyl)piperidin-1-yl)-2-(2,6-dioxopiperidin-3-yl)isoindoline-1,3-dione], in experiment [1], the DC50 was less than 100 nM and the Dmax was more than 75%. In experiment [2], this compound returned a DC50 of less than 100 nM and a Dmax of more than 75%.
`CCC12CNc3nnc(-c4cccc(F)c4O)cc3N1CCN(C(=O)N1[C@H](C)CN(CC3CCN(c4ccc5c(c4)C(=O)N(C4CCC(=O)NC4=O)C5)CC3)C[C@@H]1C)C2` (single isomer, unassigned) [Example 60]: in experiment [1], the DC50 was less than 100 nM and the Dmax is more than 75%. In experiment [2], this compound yielded a DC50 of less than 100 nM and a Dmax of more than 75%.
Consider `CCC12CNc3nnc(-c4cccc(F)c4O)cc3N1CCN(C(=O)N1[C@@H](C)CN(CC3CCN(c4ccc5c(c4)C(=O)N(C4CCC(=O)NC4=O)C5)CC3)C[C@@H]1C)C2` (single isomer, unassigned) [Example 81], for which, in experiment [1], the DC50 is less than 100 nM and the Dmax is more than 75%. In experiment [2], the DC50 fell in the range of 100 to 1000 nM and the Dmax is less than 50%.
For `CC1(C)CC(CN2CCN(c3ccc4c(c3)C(=O)N(C3CCC(=O)NC3=O)C4)CC2)CCN1C(=O)N1CCN2c3cc(-c4cccc(F)c4O)nnc3NC[C@H]2C1` (stereo partly drawn) [Example 122, 3-(6-(4-((1-((S)-2-(3-fluoro-2-hydroxyphenyl)-6,6a,7,8,9,10-hexahydro-5H-pyrazino[1′,2′:4,5]pyrazino[2,3-c]pyridazine-8-carbonyl)-2,2-dimethylpiperidin-4-yl)methyl)piperazin-1-yl)-1-oxoisoindolin-2-yl)piperidine-2,6-dione], in that order: less than 100 nM, more than 75%, less than 100 nM and 50 to 75%.
Take `CC1(C)CN(CC2CCN(c3ccc4c(c3)C(=O)N([C@H]3CCC(=O)NC3=O)C4)CC2)CCN1C(=O)N1CCN2c3cc(-c4cccc(F)c4O)nnc3NCC2(C(F)(F)F)C1` (single isomer, unassigned) [Example 100]: in experiment [1], the “SMARCA2 DMax %” value was “A (A=Dmax>75%)” and the DC50 is less than 100 nM. In experiment [2], the DC50 was less than 100 nM and the Dmax lay in the range of 50 to 75%.
Take `C[C@@H]1CN(CC2CCN(c3ccc4c(c3)C(=O)N(C3CCC(=O)NC3=O)C4)CC2)C[C@H](C)N1C(=O)N1CCN2c3cc(-c4cccc(F)c4O)nnc3NC[C@]2(C(F)F)C1` (stereo partly drawn) [Example 70, 3-(6-(4-(((3R,5S)-4-((R)-6a-(difluoromethyl)-2-(3-fluoro-2-hydroxyphenyl)-6,6a,7,8,9,10-hexahydro-5H-pyrazino[1′,2′:4,5]pyrazino[2,3-c]pyridazine-8-carbonyl)-3,5-dimethylpiperazin-1-yl)methyl)piperidin-1-yl)-1-oxoisoindolin-2-yl)piperidine-2,6-dione]: the DC50 in experiment [1] and in experiment [2] was less than 100 nM in each case. Besides, the Dmax is more than 75% in experiment [1] and 50 to 75% in experiment [2].
`CC1(C)CN(CC2CCN(c3ccc4c(c3)C(=O)N(C3CCC(=O)NC3=O)C4)CC2)CCN1C(=O)N1CCN2c3cc(-c4cc(F)cc(F)c4O)nnc3NC[C@H]2C1` (stereo partly drawn) [Example 22, 3-(6-(4-((4-((S)-2-(3,5-difluoro-2-hydroxyphenyl)-6,6a,7,8,9,10-hexahydro-5H-pyrazino[1′,2′:4,5]pyrazino[2,3-c]pyridazine-8-carbonyl)-3,3-dimethylpiperazin-1-yl)methyl)piperidin-1-yl)-1-oxoisoindolin-2-yl)piperidine-2,6-dione]: in experiment [1], the DC50 was less than 100 nM and the Dmax is more than 75%. Further, in experiment [2], the DC50 was less than 100 nM and the Dmax lay within 50 to 75%.
As for `C[C@@H]1CN(CC2CCN(c3ccc4c(c3)C(=O)N(C3CCC(=O)NC3=O)C4)CC2)[C@@H](C)CN1C(=O)N1CCN2c3cc(-c4cccc(F)c4O)nnc3NCC2(C)C1` (stereo partly drawn) [Example 57, 3-(6-(4-(((2S,5R)-4-(2-(3-fluoro-2-hydroxyphenyl)-6a-methyl-6,6a,7,8,9,10-hexahydro-5H-pyrazino[1′,2′:4,5]pyrazino[2,3-c]pyridazine-8-carbonyl)-2,5-dimethyl-piperazin-1-yl)methyl)piperidin-1-yl)-1-oxoisoindolin-2-yl)piperidine-2,6-dione], the DC50 in experiment [1] and in experiment [2] was less than 100 nM throughout. Further, the Dmax in experiment [1] was more than 75%; in experiment [2] it was less than 50%.
In the case of `C[C@@H]1CN(CC2CCN(c3ccc4c(c3)C(=O)N(C3CCC(=O)NC3=O)C4)CC2)C[C@H](C)N1C(=O)N1CCN2c3cc(-c4cccc(F)c4O)nnc3NCC2(C)C1` (single isomer, unassigned) [Example 11], in experiment [1], the DC50 is less than 100 nM and the Dmax was more than 75%. Further, in experiment [2], the DC50 was less than 100 nM and the “SMARCA4 DMax %” value was “B (B=50%<Dmax≤75%)”.
With `C[C@@H]1CN(C[C@H]2CN(c3ccc4c(c3)CN(C3CCC(=O)NC3=O)C4=O)CCO2)C[C@@H](C)N1C(=O)N1CCN2c3cc(-c4cc(F)cc(F)c4O)nnc3NC[C@H]2C1` (stereo partly drawn) [Example 46, 3-(5-((S)-2-(((3R,5R)-4-((S)-2-(3,5-difluoro-2-hydroxyphenyl)-6,6a,7,8,9,10-hexahydro-5H-pyrazino[1′,2′:4,5]pyrazino[2,3-c]pyridazine-8-carbonyl)-3,5-dimethylpiperazin-1-yl)methyl)morpholino)-1-oxoisoindolin-2-yl)piperidine-2,6-dione], in experiment [1], the DC50 is less than 100 nM and the Dmax was more than 75%. In addition, in experiment [2], the DC50 is less than 100 nM and the maximal degradation (Dmax) was less than 50%.

These data come from US20230365576A1, “BRM Targeting Compounds And Associated Methods Of Use” (Prelude Therapeutics Incorporated, priority 2022, published 2023).
